In patent publication US20250270191A1, “QUINOLONE BCL6 BIFUNCTIONAL DEGRADERS” (Treeline Biosciences, Inc., priority 2022, published 2025):

What follows are compounds tested against T1, Human BCL6 protein (N-terminal HiBiT tagged BCL6 in HT1080 cells) (Homo sapiens, UniProt P41182+Q96SW2) (assay: HiBiT based BCL6 degradation assay). Details: HT1080 cells expressing N-terminal HiBiT tagged BCL6; 5 hours incubation; BCL6 degradation normalized with DMSO control.
T1 construct: Human BCL6 protein coding open reading frame; expressed in transfected cells; host or cells: HT1080 (ATCC CCL-121), stably transduced with lentivirus pLV-UBC-N-HiBiT-BCL6-PGK-puro
Format: cell-based
Source text: Human BCL6 protein coding open reading frame fused with N-terminal HiBiT coding sequence was synthesized from Integrated DNA Technologies (IDT). Next, the N-HiBiT-BCL6 sequence was cloned into pLV-UBC-PGK-Puro, a lentivirus plasmid purchased from Vectorbuilder, to generate pLV-UBC-N-HiBiT-BCL6-PGK-puro. Lentiviral particles were generated from Lenti-X™ 293T cells (Clontech) by co-transfection of pLV-UBC-N-HiBiT-BCL6-PGK-puro plasmids and lentiviral packaging plasmid mix (Cellecta). HT1080 [HT1080] (ATCC CCL-121) cells were infected with the lentivirus, and HT1080 cells stably integrated with the lentiviral vectors were established by incubation with 1 μg/mL puromycin (Thermofisher).
HT1080 cells expressing N-terminal HiBiT tagged BCL6 were dispensed into a 384-well plate pre-spotted with compounds at varying concentrations. Five thousand cells were seeded into each well in 40 μL of RPMI 1640 media plus 10% Fetal Bovine Serum (10082-147, Thermofisher). After 5 hours of incubation at 37° C. with 5% CO2, 30 μL of the NANO-GLO® HiBiT Lytic Detection System working solution (Promega) was added to each well and incubated at room temperature for 15 min. After incubation, luminescence was read on a PHERAstar FSX Plate Reader (BMG). BCL6 degradation at each indicated concentration was normalized with DMSO control. The BCL6 degradation curves were plotted using a four-parameter logistic model.

Ymin (5 hr) | Structure (SMILES)
++ (50% < Ymin ≤ 70%) | CNC(=O)COc1cc2cc(Nc3nc(N4CCC(CNc5ccc(C6CCC(=O)NC6=O)cc5)CC4)ncc3Cl)ccc2n(C)c1=O (stereo not drawn) [Compound 265, 2-((6-((5-chloro-2-(4-(((4-(2,6-dioxopiperidin-3-yl)phenyl)amino)methyl)piperidin-1-yl)pyrimidin-4-yl)amino)-1-methyl-2-oxo-1,2-dihydroquinolin-3-yl)oxy)-N-methylacetamide]
+ (Ymin > 70%) | CNC(=O)COc1cc2cc(Nc3nc(N4CCC[C@H](CNc5cccc(C6CCC(=O)NC6=O)c5)C4)ncc3Cl)ccc2n(C)c1=O (stereo partly drawn) [Compound 275a, 2-((6-((5-chloro-2-((3R)-3-(((3-(2,6-dioxopiperidin-3-yl)phenyl)amino)methyl)piperidin-1-yl)pyrimidin-4-yl)amino)-1-methyl-2-oxo-1,2-dihydroquinolin-3-yl)oxy)-N-methylacetamide]
++ (50% < Ymin ≤ 70%) | CNC(=O)COc1cc2cc(Nc3nc(N4CCC[C@@H](CNc5cccc(C6CCC(=O)NC6=O)c5)C4)ncc3Cl)ccc2n(C)c1=O (stereo partly drawn) [Compound 275b, 2-((6-((5-chloro-2-((3S)-3-(((3-(2,6-dioxopiperidin-3-yl)phenyl)amino)methyl)piperidin-1-yl)pyrimidin-4-yl)amino)-1-methyl-2-oxo-1,2-dihydroquinolin-3-yl)oxy)-N-methylacetamide]
+ (Ymin > 70%) | CNC(=O)COc1cc2cc(Nc3nc(NC[C@H]4CC[C@H](Nc5ccc(C6CCC(=O)NC6=O)cc5)CC4)ncc3Cl)ccc2n(C)c1=O (stereo partly drawn) [Compound 277a, 2-((6-((5-chloro-2-((((1r,4r)-4-((4-(2,6-dioxopiperidin-3-yl)phenyl)amino)cyclohexyl)methyl)amino)pyrimidin-4-yl)amino)-1-methyl-2-oxo-1,2-dihydroquinolin-3-yl)oxy)-N-methylacetamide]
++ (50% < Ymin ≤ 70%) | CNC(=O)COc1cc2cc(Nc3nc(NC[C@H]4CC[C@@H](Nc5ccc(C6CCC(=O)NC6=O)cc5)CC4)ncc3Cl)ccc2n(C)c1=O (stereo partly drawn) [Compound 277b, 2-((6-((5-chloro-2-((((1s,4s)-4-((4-(2,6-dioxopiperidin-3-yl)phenyl)amino)cyclohexyl)methyl)amino)pyrimidin-4-yl)amino)-1-methyl-2-oxo-1,2-dihydroquinolin-3-yl)oxy)-N-methylacetamide]
++ (50% < Ymin ≤ 70%) | CNC(=O)COc1cc2cc(Nc3nc(N4CCC[C@H](Nc5ccc6c(C7CCC(=O)NC7=O)nn(C)c6c5)C4)ncc3Cl)ccc2n(C)c1=O (stereo partly drawn) [Compound 280a, 2-((6-((5-chloro-2-((3S)-3-((3-(2,6-dioxopiperidin-3-yl)-1-methyl-1H-indazol-6-yl)amino)piperidin-1-yl)pyrimidin-4-yl)amino)-1-methyl-2-oxo-1,2-dihydroquinolin-3-yl)oxy)-N-methylacetamide]
+ (Ymin > 70%) | CNC(=O)COc1cc2cc(Nc3nc(N4CCC[C@@H](Nc5ccc6c(C7CCC(=O)NC7=O)nn(C)c6c5)C4)ncc3Cl)ccc2n(C)c1=O (stereo partly drawn) [Compound 280b, 2-((6-((5-chloro-2-((3R)-3-((3-(2,6-dioxopiperidin-3-yl)-1-methyl-1H-indazol-6-yl)amino)piperidin-1-yl)pyrimidin-4-yl)amino)-1-methyl-2-oxo-1,2-dihydroquinolin-3-yl)oxy)-N-methylacetamide]
++ (50% < Ymin ≤ 70%) | CNC(=O)COc1cc2cc(Nc3nc(N4CCC(CCNc5ccc(C6CCC(=O)NC6=O)cc5)CC4)ncc3Cl)ccc2n(C)c1=O (stereo not drawn) [Compound 284, 2-((6-((5-chloro-2-(4-(2-((4-(2,6-dioxopiperidin-3-yl)phenyl)amino)ethyl)piperidin-1-yl)pyrimidin-4-yl)amino)-1-methyl-2-oxo-1,2-dihydroquinolin-3-yl)oxy)-N-methylacetamide]
+++ (25% < Ymin ≤ 50%) | CNC(=O)COc1cc2cc(Nc3nc(N4CCC(C5CN(c6cccc7c(C8CCC(=O)NC8=O)nn(C)c67)C5)CC4)ncc3Cl)ccc2n(C)c1=O (stereo not drawn) [Compound 286, 2-((6-((5-chloro-2-(4-(1-(3-(2,6-dioxopiperidin-3-yl)-1-methyl-1H-indazol-7-yl)azetidin-3-yl)piperidin-1-yl)pyrimidin-4-yl)amino)-1-methyl-2-oxo-1,2-dihydroquinolin-3-yl)oxy)-N-methylacetamide]

The remaining lines, values behind:

Structure (SMILES) | Ymin (5 hr)
CNC(=O)COc1cc2cc(Nc3nc(N4CCC[C@@H](CNc5cccc6c(C7CCC(=O)NC7=O)nn(C)c56)C4)ncc3Cl)ccc2n(C)c1=O (stereo partly drawn) [Compound 266a, 2-((6-((5-chloro-2-((3S)-3-(((3-(2,6-dioxopiperidin-3-yl)-1-methyl-1H-indazol-7-yl)amino)methyl)piperidin-1-yl)pyrimidin-4-yl)amino)-1-methyl-2-oxo-1,2-dihydroquinolin-3-yl)oxy)-N-methylacetamide] | ++ (50% < Ymin ≤ 70%)
CNC(=O)COc1cc2cc(Nc3nc(N4CCC[C@H](CNc5cccc6c(C7CCC(=O)NC7=O)nn(C)c56)C4)ncc3Cl)ccc2n(C)c1=O (stereo partly drawn) [Compound 266b, 2-((6-((5-chloro-2-((3R)-3-(((3-(2,6-dioxopiperidin-3-yl)-1-methyl-1H-indazol-7-yl)amino)methyl)piperidin-1-yl)pyrimidin-4-yl)amino)-1-methyl-2-oxo-1,2-dihydroquinolin-3-yl)oxy)-N-methylacetamide] | ++ (50% < Ymin ≤ 70%)
CNC(=O)COc1cc2cc(Nc3nc(N4CCC[C@H]4CNc4ccc5c(C6CCC(=O)NC6=O)nn(C)c5c4)ncc3Cl)ccc2n(C)c1=O (stereo partly drawn) [Compound 279a, 2-((6-((5-chloro-2-((2S)-2-(((3-(2,6-dioxopiperidin-3-yl)-1-methyl-1H-indazol-6-yl)amino)methyl)pyrrolidin-1-yl)pyrimidin-4-yl)amino)-1-methyl-2-oxo-1,2-dihydroquinolin-3-yl)oxy)-N-methylacetamide] | ++ (50% < Ymin ≤ 70%)
CNC(=O)COc1cc2cc(Nc3nc(N4CCC[C@@H]4CNc4ccc5c(C6CCC(=O)NC6=O)nn(C)c5c4)ncc3Cl)ccc2n(C)c1=O (stereo partly drawn) [Compound 279b, 2-((6-((5-chloro-2-((2R)-2-(((3-(2,6-dioxopiperidin-3-yl)-1-methyl-1H-indazol-6-yl)amino)methyl)pyrrolidin-1-yl)pyrimidin-4-yl)amino)-1-methyl-2-oxo-1,2-dihydroquinolin-3-yl)oxy)-N-methylacetamide] | +++ (25% < Ymin ≤ 50%)
CNC(=O)COc1cc2cc(Nc3nc(N4CCC(CC5CCN(c6cccc7c(C8CCC(=O)NC8=O)nn(C)c67)CC5)CC4)ncc3Cl)ccc2n(C)c1=O (stereo not drawn) [Compound 281, 2-((6-((5-chloro-2-(4-((1-(3-(2,6-dioxopiperidin-3-yl)-1-methyl-1H-indazol-7-yl)piperidin-4-yl)methyl)piperidin-1-yl)pyrimidin-4-yl)amino)-1-methyl-2-oxo-1,2-dihydroquinolin-3-yl)oxy)-N-methylacetamide] | +++ (25% < Ymin ≤ 50%)
CNC(=O)COc1cc2cc(Nc3nc(N4CCN(C5CN(c6ccc7c(C8CCC(=O)NC8=O)nn(C)c7c6)C5)CC4)ncc3Cl)ccc2n(C)c1=O (stereo not drawn) [Compound 282, 2-((6-((5-chloro-2-(4-(1-(3-(2,6-dioxopiperidin-3-yl)-1-methyl-1H-indazol-6-yl)azetidin-3-yl)piperazin-1-yl)pyrimidin-4-yl)amino)-1-methyl-2-oxo-1,2-dihydroquinolin-3-yl)oxy)-N-methylacetamide] | +++ (25% < Ymin ≤ 50%)
CNC(=O)COc1cc2cc(Nc3nc(N4CCN(C5CN(c6cccc7c(C8CCC(=O)NC8=O)nn(C)c67)C5)CC4)ncc3Cl)ccc2n(C)c1=O (stereo not drawn) [Compound 283, 2-((6-((5-chloro-2-(4-(1-(3-(2,6-dioxopiperidin-3-yl)-1-methyl-1H-indazol-7-yl)azetidin-3-yl)piperazin-1-yl)pyrimidin-4-yl)amino)-1-methyl-2-oxo-1,2-dihydroquinolin-3-yl)oxy)-N-methylacetamide] | +++ (25% < Ymin ≤ 50%)
CNC(=O)COc1cc2cc(Nc3nc(N4CCC(OC5CCN(c6ccc7c(C8CCC(=O)NC8=O)nn(C)c7c6)CC5)CC4)ncc3Cl)ccc2n(C)c1=O (stereo not drawn) [Compound 287, 2-((6-((5-chloro-2-(4-((1-(3-(2,6-dioxopiperidin-3-yl)-1-methyl-1H-indazol-6-yl)piperidin-4-yl)oxy)piperidin-1-yl)pyrimidin-4-yl)amino)-1-methyl-2-oxo-1,2-dihydroquinolin-3-yl)oxy)-N-methylacetamide] | +++ (25% < Ymin ≤ 50%)
CNC(=O)COc1cc2cc(Nc3nc(N4CCC(CC5CCN(c6ccc7c(C8CCC(=O)NC8=O)nn(C)c7c6)CC5)CC4)ncc3Cl)ccc2n(C)c1=O (stereo not drawn) [Compound 288, 2-((6-((5-chloro-2-(4-((1-(3-(2,6-dioxopiperidin-3-yl)-1-methyl-1H-indazol-6-yl)piperidin-4-yl)methyl)piperidin-1-yl)pyrimidin-4-yl)amino)-1-methyl-2-oxo-1,2-dihydroquinolin-3-yl)oxy)-N-methylacetamide] | +++ (25% < Ymin ≤ 50%)
